# Measurements reported in patent US12263248B2, “Compounds and compositions for intracellular delivery of therapeutic agents” (ModernaTX, Inc., priority 2018, dated 2025).
# Key:
# [1] = Particle size and polydispersity index of nanoparticle compositions (Zetasizer Nano ZS); type: physicochemical; settings: Table 1A; for Size (nm): lipid:DSPC:cholesterol:PEG-DMG 50:10:38.5:1.5 mol %
# In short: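 In 1×PBS, the compositions were sized on a Zetasizer Nano ZS, which also reported their polydispersity index.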
# [2] = Encapsulation efficiency of RNA (QUANT-IT RIBOGREEN RNA assay); type: physicochemical; settings: Table 1A
# In short: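 RiboGreen fluorescence (ex ~480, em ~520 nm) compared between intact samples and Triton X-100-lysed samples after 15 min at 37 °C in TE buffer, pH 7.5. Percent free RNA is the blank-corrected intact/disrupted ratio.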
# [3] = Apparent (surface) pKa of the LNP formulation (TNS assay); type: physicochemical; settings: Table 1A
# Procedure: Using sodium hydroxide (1 M) and hydrochloric acid (1 M), 21 unique buffers were prepared from the master buffer stock at pH values between about 3 and 12. Next, a stock of 300 μM 6-(p-Toluidino)-2-naphthalenesulfonic acid sodium salt (TNS reagent) in DMSO was prepared and the LNP was mixed with the desired formulation buffer at a concentration of 0.04 mg/mL mRNA. This assay has been validated in 1× PBS and 20 mM Tris w/8% sucrose buffer. The buffer solutions at various pH values were added to a 96-well plate in triplicate for each pH. To each well was added 3.26 μL of LNP sample at a mRNA concentration of 0.04 mg/mL and 2.0 μL of 300 μM TNS reagent solution. After careful mixing, the resulting fluorescence values were read for each plate to create a sigmoidal plot of the fluorescence values vs. buffer pH. The […] inflection point of this curve is the apparent pKa of the LNP formulation.
# luciferase (Luc) mRNA [4] = experiment: Luc expression, whole body bioluminescence after intravenous administration to mice; type: in vivo; settings: for 6 h Lipid/MC3 Avg. Luc Expression / Fold increase AUC Lipid/MC3 / AUC (h * p/s): Table 3C; for 6 h Lipid/MC3 Avg. Luc Expression / Fold increase AUC Lipid/MC3 / AUC (h * p/s) / Fold increase in total body Luc Flux relative to MC3 at 6 h: i.v. administration; for AUC (h * p/s) / AUC (p/s * h): Luc; for Total Flux 3 hours / Total Flux 6 hours / Total Flux 24 hours: mice, i.v., 0.5 mg/kg, Luc mRNA; for Fold increase in total body Luc Flux relative to MC3 at 6 h: Table 3A; for Lipid/MC3 AUC / AUC (p/s * h): Table 3D, intravenous
# In short: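 Luc mRNA nanoparticle formulations given intravenously to mice (n=6) at 0.5 mg/kg; whole-body bioluminescence imaged at 3, 6 and 24 h. CD-1 mice received IP D-luciferin (200 μL of 15 mg/mL) 15 min before imaging; total flux quantified by region of interest.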
# luciferase (Luc) mRNA [5] = experiment: Luc expression in liver, lung, spleen and femur 6 hours after intravenous administration; type: in vivo; settings: mice, 0.5 mpk; for Total Flux Liver / Total Flux Lung / Total Flux Spleen: intravenous; for Flux in the spleen: i.v., in words
# In short: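 LNP-formulated mRNA given IV to mice (n=3) at 0.5 mpk; at 6 h, bioluminescence imaged ex vivo 15 min after IP D-luciferin (15 mg/mL, 200 μL), organs imaged within 25 min. Values are total flux by region of interest.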
Structure (SMILES),PDI [1],Size (nm) [1] [nm],EE (%) [2] [%],pKa [3],6 h Lipid/MC3 Avg. Luc Expression (luciferase (Luc) mRNA [4]),Fold increase AUC Lipid/MC3 (luciferase (Luc) mRNA [4]),AUC (h * p/s) (luciferase (Luc) mRNA [4]),Total Flux 3 hours (luciferase (Luc) mRNA [4]),Total Flux 6 hours (luciferase (Luc) mRNA [4]),Total Flux 24 hours (luciferase (Luc) mRNA [4]),Total Flux Liver (luciferase (Luc) mRNA [5]),Total Flux Lung (luciferase (Luc) mRNA [5]),Total Flux Spleen (luciferase (Luc) mRNA [5]),Fold increase in total body Luc Flux relative to MC3 at 6 h (luciferase (Luc) mRNA [4]),Lipid/MC3 AUC (luciferase (Luc) mRNA [4]),AUC (p/s * h) (luciferase (Luc) mRNA [4]),Flux in the spleen (luciferase (Luc) mRNA [5])
"CCCCCCCCCOC(=O)CCCCCCCN(CCO)CCCCCCCOP(=O)(OCCCCCCCC)OCCCCCCCC [Compound 131, Nonyl 8-((7-((bis(octyloxy)phosphoryl)oxy)heptyl)(2-hydroxyethyl)amino)octanoate]",0.095,167.9,75.44,7.76,1.05,1.13,9.29E+10,6.97E+09,7.64E+09,2.47E+08,3.52E+08,1.45E+07,8.32E+08,,,,
"CCCCCCCCCOC(=O)CCCCCCCN(CCO)CCCCCCCCCOP(=O)(OCCCCCCCCC)OCCCCCCCCC [Compound 127, Nonyl 8-((9-((bis(nonyloxy)phosphoryl)oxy)nonyl)(2-hydroxyethyl)amino)octanoate]",0.19,110.4,89.5,6.98,,,,3.81E+09,2.09E+09,4.56E+08,1.94E+08,5.26E+06,3.21E+08,0.094,,,
"CCCCCCCCCOC(=O)CCCCCCCN(CCCCCCCC(=O)OC(CCCCCCCC)CCCCCCCC)CCOCCO [Compound 154, Heptadecan-9-yl 8-((2-(2-hydroxyethoxy)ethyl)(8-(nonyloxy)-8-oxooctylamino octanoate]",0.110,92.9,94.28,6.827,,,,2.49E+09,4.89E+09,6.26E+07,3.62E+08,2.89E+06,1.30E+07,,0.29,5.560E+010,
"CCCCCCCCCCCOC(=O)CCCCCN(CCO)CCCCCCCC(=O)N(CCCCCCCC)CCCCCCCC [Compound 129, Undecyl 6-((8-(dioctylamino)-8-oxooctyl)(2-hydroxyethyl)amino)hexanoate]",0.19,86.3,77.2,7.3,,,,5.97E+09,4.51E+09,2.22E+08,6.65E+08,9.89E+06,5.09E+08,0.203,,,highest
"CCCCCCCCCOC(=O)CCCCCCCN(CCO)CCCCCCCC(=O)Oc1ccc(CCCCC)c(CCCCC)c1 [Compound 118, 3,4-Dipentylphenyl 8-((2-hydroxyethyl)(8-(nonyloxy)-8-oxooctyl)amino)octanoate]",0.08,72.1,98,6.14,,,,1.46E+09,1.16E+09,4.37E+07,1.72E+08,1.98E+06,2.49E+07,,,,
"CCCCCCCCC(CCCCCCCC)OC(=O)CCCCCCCN(C)CCCCCCCCCC(=O)OCCCCCCC [Compound 149, Heptyl 10-((8-(heptadecan-9-yloxy)-8-oxooctyl)(methyl)amino)decanoate]",0.110,62.1,98.00,6.284,,,,1.01E+10,8.33E+09,3.45E+08,1.11E+09,2.69E+06,2.71E+07,,0.55,1.057E+011,
"CCCCCCCCC(CCCCCCCC)OC(=O)CCCCCCCN(CCO)CCCC(=O)OC(CCCCCC)CCCCCCCC (centres unmarked) [Compound 73, Heptadecan-9-yl 8-((2-hydroxyethyl)(4-oxo-4-(pentadecan-7-yloxy)butyl)amino)octanoate]",0.13,59.2,95.7,5.95,,,,8.10E+09,1.07E+10,1.27E+08,7.93E+08,6.17E+06,9.45E+06,0.48,,,
"CCCCCCCCCOC(=O)CCCCCCCN(CCCCCCCC(=O)OC(CCCCCCCC)CCCCCCCC)CCN1CCOCC1 [Compound 103, Heptadecan-9-yl 8-((2-morpholinoethyl)(8-(nonyloxy)-8-oxooctyl)amino)octanoate]",0.160,78.8,90.77,6.13,0.250,0.291,2.4E+10,2.68E+09,1.82E+09,9.45E+07,8.48E+07,2.06E+05,2.65E+06,,,,
"CCCCCCCCC(CCCCCCCC)OC(=O)CCCCCCCN(CCO)CCCCCCCC(=O)OC(C)(C)C [Compound 155, tert-Butyl 8-((8-(heptadecan-9-yloxy)-8-oxooctyl)(2-hydroxyethyl)amino)octanoate]",0.240,208.3,37.36,6.576,,,,2.49E+09,1.15E+10,1.99E+08,8.58E+08,1.00E+07,2.77E+08,,0.66,1.266E+011,
"CCCCCCCC/C=C\CCCCCCCCN(CCO)CCCCCCCC(=O)OC(CCCCCCCC)CCCCCCCC [Compound 31, heptadecan-9-yl (Z)-8-((2-hydroxyethyl)(octadec-9-en-1-yl)amino) octanoate]",0.15,73.9,95.11,6.64,,,,4.19E+10,5.31E+10,1.68E+09,5.17E+09,7.55E+06,9.42E+07,1.21,,,
"CCCCCCCCCOC(=O)CCCCCCCN(CCO)CCCCCCCC(=O)OC(CCC)CCCCCCCC (centres unmarked) [Compound 34, dodecan-4-yl 8-((2-hydroxyethyl)(8-(nonyloxy)-8-oxooctyl)amino) octanoate]",0.14,133.8,92.52,6.64,,,,1.06E+10,1.48E+10,6.69E+08,2.08E+09,9.49E+06,2.40E+08,0.34,,,highest
"CCCCCCCCCOC(=O)CCCCCCCN(CCO)CCCCCCCC(=O)OC1CCC(C2CCCCC2)CC1 (centres unmarked) [Compound 80, [1,1′—Bi(cyclohexan)]-4-yl 8-((2-hydroxyethyl)(8-(nonyloxy)-8-oxooctyl)amino)octanoate]",0.19,118,90.7,7.52,,,,2.76E+08,3.26E+08,1.54E+07,1.09E+07,8.97E+04,4.71E+06,,,,
"CCCCCCCCC(CCCCCCCC)OC(=O)CCCCCCCN(CCO)CCCCCC(=O)N(C)CCCCCCCC [Compound 146, Heptadecan-9-yl 8-((2-hydroxyethyl)(6-(methyl(octyl)amino)-6-oxohexyl)amino)octanoate]",0.210,97.0,91.94,7.78,0.011,0.013,1.04E+09,9.48E+07,8.39E+07,2.30E+06,7.24E+06,3.88E+06,5.11E+07,,,,
